From patent US20220160686A1, “MACROCYCLIC AZOLOPYRIDINE DERIVATIVES AS EED AND PRC2 MODULATORS” (Fulcrum Therapeutics, Inc., priority 2019, published 2022)
Where two headings read alike, the source gives them in different places.

System: human P-glycoprotein HEK cells (HEK-P-gp)
Assay: H3K27me3 immunocytochemistry assay in P-gp expressing HEK293T cells, with or without elacridar
Assay type: cell-based
Experimental: A plasmid encoding the human ABCB1 gene under the control of a CMV promoter was purchased from Origene (Cat #RC216080). The HEK293T cells were purchased from ATCC (Cat #CRL-3216) and were cultured for expansion in the recommended conditions. The HEK293T cells were transfected with 2 ug of the pCMV-ABCB1 plasmid using Lipofectamine 3000 following recommendations from the manufacturer (ThermoFisher Scientific, Cat #L3000008). After 24 h, cells were dissociated, and 5000 cells were seeded on a 10 cm tissue culture dish. On the next day, fresh media containing 5 nM Vinblastine (Sigma, Cat #V1377) was added, and media containing compound was replenished every 72 h. After surviving cells reached confluency, cells were passaged, and lines were maintained in the presence of 2.5 nM Vinblastine until further characterization.
P-gp expressing HEK293T, HUDEP2, and Human Mobilized Peripheral Blood Primary CD34+ cells were cultured for use in an H3K27me3 immunocytochemistry assay. HUDEP2 and Human Mobilized Peripheral Blood Primary CD34+ cells were cultured for use in an HbF immunocytochemistry assay. P-gp expressing HEK293T cells were maintained and passaged every 3-4 days by plating 300,000 viable cells in a T-25 culture flask containing 6 mLs of 293 Passaging Media comprised of DMEM (ThermoFisher #10566016), 10% fetal bovine serum (ThermoFisher #A3160502), 1% penicillin-streptomycin (ThermoFisher #15140122), and 2.5 nM Vinblastine (Sigma #V1377). To evaluate the inhibitory effect of the compounds of the present disclosure and their brain penetrant properties via P-gp mediated efflux, the H3K27me3 immunocytochemistry assay was conducted in the presence or absence of 250 nM of the P-gp inhibitor, elacridar. Poor brain penetrant compounds were expected to show higher potencies in the presence of Elacridar. However, brain penetrant compounds would show similar potencies irrespective of whether Elacridar is present or not. In these experiments plates without elacridar were seeded with P-gp expressing HEK293T cells at 1000 viable cells per well in a poly-d-lysine coated 384-well plate (Corning Cat #356697) in 45 μL of 293 Assay Media comprised of DMEM (ThermoFisher #10566016), 10% fetal bovine serum (ThermoFisher #A3160502), 1% penicillin-streptomycin (ThermoFisher #15140122). A replicate set of plates were seeded under the same conditions with 45 μL of 293 Assay Media supplemented with 250 nM of Elacridar to inhibit P-gp activity. Compounds were serially diluted at 10× concentration in 293 Media, and 5 μL transferred to their respective wells on both sets of plates for a total volume of 50 μL per well. The compound treated HEK293T cells were allowed to incubate for 4 days at 37° C., 85% relative humidity, and 5% CO2 before proceeding to ICC Fix and Stain protocol.
The Fix and Stain Protocol was the same for HEK293T, HUDEP2, and Primary CD34+ cell assays except the specific primary and secondary antibodies used for detection. Following 4 days of compound treatment, the respective plates were washed once with 25 μL of PBS (ThermoFisher #10010023) and fixed with 25 μL of 4% paraformaldehyde (ThermoFisher #28908) for 10 minutes at room temperature. The plates were then washed three times with 25 μL of PBS. Subsequent to that, the cells were permeabilized and blocked for 1 hour at room temperature in 25 μL of Perm/Block buffer comprised of IX PBS, 1% bovine serum albumin (ThermoFisher #A3294), 10% fetal bovine serum (ThermoFisher #A3160502), 0.3M glycine (Sigma #G7126), and 0.1% tween-20 (Sigma #P7949). This was followed by additional washing (three times) of the plates with 25 μL of 0.1% tween in PBS.
For the H3K27me3 assay, the cells were incubated overnight at 4° C. with 25 μL of H3K27me3 Primary Antibody (Cell Signaling #9733) diluted 1:200 in 0.1% tween-20 in PBS. […]

[1] = Homo sapiens, HEK293, 96 h, without elacridar, 4 days compound treatment, read-out: IC50, inhibitory activity on human P-glycoprotein HEK cells (HEK-P-gp)
[2] = Homo sapiens, HEK293, with 250 nM elacridar, 4 days compound treatment, read-out: IC50, inhibitory activity on human P-glycoprotein HEK cells (HEK-P-gp) pretreated with elacridar

Molecule | IC50 | IC50 [1] | IC50 [2]
COC(=O)N1CCC(c2cc3c(n4cnnc24)NCc2c(F)cccc2COC3)CC1 [Compound 181, methyl 4-(12-fluoro-6,8,13,14-tetrahydro-[1,2,4]triazolo[4′,3′:1,6]pyrido[3,2-c]benzo[g][1,5]oxazonin-4-yl)piperidine-1-carboxylate] | – | > 500 nM | > 500 nM
Cc1ncc(-c2cc3c(n4cnnc24)NCc2c(F)cccc2COC3)c(C)n1 [Compound 182, 4-(2,4-dimethylpyrimidin-5-yl)-12-fluoro-6,8,13,14-tetrahydro-[1,2,4]triazolo[4′,3′:1,6]pyrido[3,2-c]benzo[g][1,5]oxazonine] | – | > 500 nM | > 500 nM
Cn1cc(Cc2cc3c(n4cnnc24)NCc2c(F)cccc2COC3)cn1 [Compound 183, 12-fluoro-4-((1-methyl-1H-pyrazol-4-yl)methyl)-6,8,13,14-tetrahydro-[1,2,4]triazolo[4′,3′:1,6]pyrido[3,2-c]benzo[g][1,5]oxazonine] | – | > 500 nM | > 500 nM
COc1cc(C)c(-c2cc3c(n4cnnc24)NCc2c(F)ccc4c2[C@@H](CO4)CO3)cn1 [Example 68, (S)-12-fluoro-4-(6-methoxy-4-methylpyridin-3-yl)-7a,8,13,14-tetrahydro-7H-[1,2,4]triazolo[4′,3′:1,6]pyrido[3,2-b]benzofuro[4,3-fg][1,4]oxazonine] | 50 to 100 nM | – | –
(S)-1-(4-(12-fluoro-7a,8,13,14-tetrahydro-7H-[1,2,4]triazolo[4′,3′:1,6]pyrido[3,2-b]benzofuro[4,3-fg][1,4]oxazonin-4-yl)piperidin-1-yl)ethan-1-one [Compound 9] | > 500 nM | – | –
(S)-12-fluoro-4-(2-methylpyridin-3-yl)-7a,8,13,14-tetrahydro-7H-[1,2,4]triazolo[4′,3′:1,6]pyrido[3,2-b]benzofuro[4,3-fg][1,4]oxazonine [Compound 8] | < 25 nM | – | –

The next lines start with results.

IC50 | Molecule | IC50 [1] | IC50 [2]
< 25 nM | Cn1cc(-c2cc3c(n4cnnc24)NCc2c(F)ccc4c2[C@@H](CO4)CO3)ccc1=O [Example 69, (S)-5-(12-fluoro-7a,8,13,14-tetrahydro-7H-[1,2,4]triazolo[4′,3′:1,6]pyrido[3,2-b]benzofuro[4,3-fg][1,4]oxazonin-4-yl)-1-methylpyridin-2(1H)-one] | – | –
< 25 nM | COc1nccc(C)c1-c1cc2c(n3cnnc13)NCc1c(F)ccc3c1[C@@H](CO3)CO2 [Example 71, (S)-12-fluoro-4-(2-methoxy-4-methylpyridin-3-yl)-7a,8,13,14-tetrahydro-7H-[1,2,4]triazolo[4′,3′:1,6]pyrido[3,2-b]benzofuro[4,3-fg][1,4]oxazonine] | – | –
50 to 100 nM | Fc1ccc2c3c1CNc1c(cc(-c4ccnn4CC(F)(F)F)c4nncn14)OC[C@@H]3CO2 [Example 72, (S)-12-fluoro-4-(1-(2,2,2-trifluoroethyl)-1H-pyrazol-5-yl)-7a,8,13,14-tetrahydro-7H-[1,2,4]triazolo[4′,3′:1,6]pyrido[3,2-b]benzofuro[4,3-fg][1,4]oxazonine] | – | –
100 to 500 nM | Cc1nc(-c2cc3c(n4cnnc24)NCc2c(F)ccc4c2[C@@H](CO4)CO3)ccc1C(F)F [Example 77, (S)-4-(5-(difluoromethyl)-6-methylpyridin-2-yl)-12-fluoro-7a,8,13,14-tetrahydro-7H-[1,2,4]triazolo[4′,3′:1,6]pyrido[3,2-b]benzofuro[4,3-fg][1,4]oxazonine] | – | –
25 to 50 nM | Cc1nccc(-c2cc3c(n4cnnc24)NCc2c(F)ccc4c2[C@@H](CO4)CO3)c1F [Example 86, (S)-12-fluoro-4-(3-fluoro-2-methylpyridin-4-yl)-7a,8,13,14-tetrahydro-7H-[1,2,4]triazolo[4′,3′:1,6]pyrido[3,2-b]benzofuro[4,3-fg][1,4]oxazonine] | – | –
100 to 500 nM | CN(C)c1cc(-c2cc3c(n4cnnc24)NCc2c(F)ccc4c2[C@@H](CO4)CO3)n(C)n1 [Example 91, (S)-5-(12-fluoro-7a,8,13,14-tetrahydro-7H-[1,2,4]triazolo[4′,3′:1,6]pyrido[3,2-b]benzofuro[4,3-fg][1,4]oxazonin-4-yl)-N,N,1-trimethyl-1H-pyrazol-3-amine] | – | –
25 to 50 nM | Cn1cnc(-c2cc3c(n4cnnc24)NCc2c(F)ccc4c2[C@@H](CO4)CO3)c1 [Example 94, (S)-12-fluoro-4-(1-methyl-1H-imidazol-4-yl)-7a,8,13,14-tetrahydro-7H-[1,2,4]triazolo[4′,3′:1,6]pyrido[3,2-b]benzofuro[4,3-fg][1,4]oxazonine] | – | –
50 to 100 nM | Cc1cc(C)c(-c2cc3c(n4cnnc24)NCc2c(F)ccc4c2[C@@H](CO4)CO3)cn1 [Example 96, (S)-4-(4,6-dimethylpyridin-3-yl)-12-fluoro-7a,8,13,14-tetrahydro-7H-[1,2,4]triazolo[4′,3′:1,6]pyrido[3,2-b]benzofuro[4,3-fg][1,4]oxazonine] | – | –
< 25 nM | CN(C)C(=O)c1ccc(-c2cc3c(n4cnnc24)NCc2c(F)ccc4c2[C@@H](CO4)CO3)cn1 [Example 152, (S)-5-(12-fluoro-7a,8,13,14-tetrahydro-7H-[1,2,4]triazolo[4′,3′:1,6]pyrido[3,2-b]benzofuro[4,3-fg][1,4]oxazonin-4-yl)-N,N-dimethylpicolinamide] | – | –
